Laboratory results taken from USRE48468E1, “Means and methods for counteracting muscle disorders” (BioMarin Technologies B.V., priority 2007, dated 2021).
Where a SMILES comes first, the peptide text is derived from it. The star is where a group is joined. Cbz = O=C(OCc1ccccc1)*

How the values were obtained:
[1] = target: 20S and 26S proteasomes; conditions: read-out: Ki (proteasomal inhibitor); cited from earlier work
[2] = tested on: exon 23 of the dystrophin gene; assay: Exon 23 skipping in mdx mice treated with PS49 with or without pentoxyfilline (RT-PCR); format: in vivo
Protocol: In a pre-clinical study in mdx mice (animal model for DMD) the effect of adjunct compound pentoxyfilline on AON-induced exon skipping was assessed. Mdx mice (C57Bl/10ScSn-mdx/J) were obtained from Charles River Laboratories (The Netherlands). These mice are dystrophin-deficient due to a nonsense mutation in exon 23. AON-induced exon 23 skipping is therapeutic in mdx mice by removing the nonsense mutation and correction of the open reading frame. Two mdx mice per group were injected subcutaneously with: Group 1) pentoxyfilline (50 mg/kg, wk 1-2), Group 2) mouse-specific antisense oligonucleotide PS49 designed to specifically induce exon 23 skipping (100 mg/kg, wk 2 (2 times), Group 3) pentoxyfilline (50 mg/kg, wk 1-2)+PS49 (100 mg/kg, wk 2 (2 times). PS49 (5′ […] 3′) has a full-length phosphorothioate backbone and 2′O-methyl modified ribose molecules.
All mice were sacrificed at 1 week post-last-injection. Different muscles groups, including quadriceps, tibialis anterior, triceps and heart muscles were isolated and frozen in liquid nitrogen-cooled 2-methylbutane. […] PCR products were analysed on 2% agarose gels. Skipping efficiencies were determined by quantification of PCR products using the DNA 1000 LabChip® Kit and the Agilent 2100 bioanalyzer (Agilent Technologies, The Netherlands).

[3] = tested on: DMD gene exon 44; assay: Exon 44 skipping in control myotubes transfected with PS188 in presence of pentoxifylline (RT-PCR); format: cell-based, human; conditions: 250 nM PS188, 0 to 0.5 mg/ml pentoxifylline, RNA 24 hrs after transfection
Protocol: (§1) A., B. Differentiated muscle cell cultures (myotubes) derived from a healthy control individual were transfected with 250 nM PS188 ([5′ […] 3′; SEQ ID NO:10] an AON optimized to specifically skip exon 44) or 250 nM PS221 ([5′ […] 3′; SEQ ID NO: 60] an AON optimized to specifically skip exon 45) in the presence of 0 to 0.5 mg/ml pentoxifylline, using the transfection reagent polymer UNIFectylin (2.0 μl UNIFectylin per μg AON in 0.15M NaCl). UNIFectylin interacts electrostatically with nucleic acids, provided that the nucleic acid is negatively charged (such as 2′-O-methyl phosphorothioate AONs). Pentoxyfillin (Sigma Aldrich) was dissolved in water. Total RNA was isolated 24 hrs after transfection in RNA-Bee solution (Campro Scientific, The Netherlands) according to the manufacturer's instructions. For cDNA synthesis with reverse transcriptase (Roche Diagnostics, The Netherlands), 500 ng of RNA was used in a 20 μl reaction at 55° C. for 30 min, reverse primed with DMD gene-specific primers. First PCRs were performed with outer primer sets, for 20 cycles of 94° C. (40 sec), 60° C. (40 sec), and 72° C. (60 sec). One μl of this reaction (diluted 1:10) was then re-amplified using nested primer combinations in the exons directly flanking exon 44 or 45, with 30 cycles of 94° C. (40 sec), 60° C. (40 sec), and 72° C. (60 sec). PCR products were analysed on 2% agarose gels. Skipping efficiencies were determined by quantification of PCR products using the DNA 1000 LabChip® Kit and the Agilent 2100 bioanalyzer (Agilent Technologies, The Netherlands).

[4] = tested on: DMD gene exon 45; assay: Exon 45 skipping in control myotubes transfected with PS221 in presence of pentoxifylline (RT-PCR); format: cell-based, human; conditions: 250 nM PS221, 0 to 0.5 mg/ml pentoxifylline, RNA 24 hrs after transfection
Protocol: as §1

[5] = tested on: exon 23 of the dystrophin gene; assay: Exon 23 skipping in mdx mice treated with PS49 with or without prednisolone (RT-PCR); format: in vivo
Protocol: Two mdx mice per group were injected subcutaneously with: Group 1) physiologic salt (wk 1-8), Group 2) prednisolone (1 mg/kg, wk 1-8), Group 3) mouse-specific antisense oligonucleotide PS49 designed to specifically induce exon 23 skipping (100 mg/kg, wk 4 (5 times), week 5-8 (2 times), Group 4) prednisolone (1 mg/kg, wk 1-8)+PS49 (100 mg/kg, wk 4 (5 times), week 5-8 (2 times). PS49 (5′ [sequence] 3′) has a full-length phosphorothioate backbone and 2′O-methyl modified ribose molecules.
All mice were sacrificed at 1 week post-last-injection. Different muscles groups, including quadriceps, tibialis anterior, and diaphragm muscles were isolated and frozen in liquid nitrogen-cooled 2-methylbutane. For RT-PCR analysis, the muscle samples were homogenized in the RNA-Bee solution (Campro Scientific, The Netherlands). Total RNA was isolated and purified according to the manufacturer's instructions. For cDNA synthesis with reverse transcriptase (Roche Diagnostics, The Netherlands), 300 ng of RNA was used in a 20 μl reaction at 55° C. for 30 min, reverse primed with mouse DMD gene-specific primers. First PCRs were performed with outer primer sets, for 20 cycles of 94° C. […] PCR products were analysed on 2% agarose gels. Skipping efficiencies were determined by quantification of PCR products using the DNA 1000 LabChip® Kit and the Agilent 2100 bioanalyzer (Agilent Technologies, The Netherlands).

[6] = tested on: dystrophin; conditions: mdx mice; variability among animals; cited from earlier work
[7] = mdx mice, s.c., sacrificed 1 week post-last-injection

CC(C)C[C@@H](C=O)NC(=O)[C@H](CC(C)C)NC(=O)[C@H](CC(C)C)NC(=O)OCc1ccccc1 [MG-132, CBZ-leucyl-leucyl-leucinal] (Cbz-Leu-Leu-Leu-aldehyde)
Ki [1]: 4 nM

CC(=O)CCCCn1c(=O)c2c(ncn2C)n(C)c1=O [pentoxifylline]
exon 23 skipping in muscles (RT-PCR) [2, 7]: No exon 23 skipping was observed | exon 23 skipping levels, PS49 plus pentoxyfilline (group 3) compared to PS49 only (group 2) ([2]; quadriceps, tibialis anterior, triceps, heart, pentoxyfilline 50 mg/kg wk 1-2, PS49 100 mg/kg): enhances exon 23 skipping levels | exon 44 skipping levels [3]: enhances exon skipping levels | exon 44 skipping levels ([3]; listed as pentoxyfilline): enhanced | exon 45 skipping levels [4]: enhances exon skipping levels | exon 45 skipping levels ([4]; listed as pentoxyfilline): enhanced

C[C@]12C=CC(=O)C=C1CC[C@@H]1[C@@H]2[C@@H](O)C[C@@]2(C)[C@H]1CC[C@]2(O)C(=O)CO [prednisolone]
exon 23 skipping in muscles (RT-PCR) [5, 7]: No exon 23 skipping was observed | exon 23 skipping levels, PS49 plus prednisolone (group 4) compared to PS49 only (group 3) ([5]; quadriceps, tibialis anterior, diaphragm, prednisolone 1 mg/kg wk 1-8, PS49 100 mg/kg): enhances exon 23 skipping levels

PS188: 5′ UCAGCUUCUGUUAGCCACUG 3′; SEQ ID NO:10; an AON optimized to specifically skip exon 44 (chemistry not given here)
exon 44 skipping levels [3]: increasing levels

PS221: 5′ AUUCAAUGUUCUGACAACAGUUUGC 3′; SEQ ID NO: 60; an AON optimized to specifically skip exon 45 (chemistry not given here)
exon 45 skipping levels [4]: increasing levels

gentamicin
novel dystrophin expression, of normal level [6]: up to 20%
